Results published in patent publication US7947833B2, “Preparation of quinoxaline compounds” (Janssen Pharmaceutica NV, priority 2004, dated 2011).

Biological target: CCK2 receptor (Cavia porcellus, UniProt H0VZC5)
Assay: Guinea-pig gastric corpeal muscle assay (pentagastrin-induced contraction)
Conditions: isolated guinea-pig gastric corpeal muscle strips, pentagastrin concentration-response curves, CCK1 receptors blocked
Experimental: Guinea-Pig Gastric Corpeal Muscle Assay
CCK2 receptor-mediated muscle contraction was measured in an isolated muscle-strip assay of guinea-pig gastric corpeal muscle according to the methods described by Roberts et al. (S. P. Roberts, E. A. Harper, G. F. Watt, V. P. Gerskowitch, R. A. Hull, N. P. Shankley, and J. W. Black, Br. J. Pharmacol., 1996, 118(7):1779-1789). In brief, strips of muscle were dissected and suspended in isolated tissue organ baths for isotonic muscle contraction recording. The baths, containing Krebs-Henseleit solution, were maintained at […]. and gassed continuously with 95% O2 and 5% CO2. CCK1 receptors known to be present in this assay were blocked using a selective concentration of a suitable CCK1 receptor antagonist (e.g. 2-NAP). The effectiveness of the test compounds was assessed by measuring their effect on contractile concentration-response curves obtained using a well-characterized surrogate for the hormone gastrin (pentagastrin). […]

CCK2 receptor, sequence (H0VZC5 entry or part of it): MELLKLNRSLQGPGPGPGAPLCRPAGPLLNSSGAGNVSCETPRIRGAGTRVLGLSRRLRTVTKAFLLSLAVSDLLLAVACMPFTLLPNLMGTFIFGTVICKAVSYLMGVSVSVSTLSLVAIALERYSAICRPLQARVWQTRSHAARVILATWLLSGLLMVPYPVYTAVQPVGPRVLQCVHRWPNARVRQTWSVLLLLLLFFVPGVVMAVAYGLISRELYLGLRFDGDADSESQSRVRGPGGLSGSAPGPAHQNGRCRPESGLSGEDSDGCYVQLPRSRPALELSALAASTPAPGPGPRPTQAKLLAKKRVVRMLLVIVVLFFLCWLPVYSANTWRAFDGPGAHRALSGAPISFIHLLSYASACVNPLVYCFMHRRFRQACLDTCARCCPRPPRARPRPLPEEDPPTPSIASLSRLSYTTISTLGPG

SMILES: C[C@@H](NC(=O)c1ccc(Br)cc1NS(=O)(=O)c1cccc2nccnc12)c1ccc(F)cc1F [Example 2, (R)-4-Bromo-N-[1-(2,4-difluoro-phenyl)-ethyl]-2-(quinoxaline-5-sulfonylamino)-benzamide]
- behaviour in the assay (mode of antagonism): competitive antagonist
